Data taken from patent publication US6613718B2, “Aryl ether derivatives and processes for their preparation and herbicidal and desiccant compositions containing them” (Ishihara Sangyo Kaisha, Ltd., priority 2001, dated 2003).

Legend:
Assay type in all cases: in vivo
Conditions in all cases: 250 g ai/ha, 14 days after application
[1] = system: green foxtail (Setaria viridis, SETVI); test: Pre-emerge greenhouse herbicide activity screening, phytotoxicity rating
From the text: (§1) A standard greenhouse herbicide activity screening system was used to evaluate the herbicidal efficacy and crop safety of these test compounds. Seven broadleaf weed species including redroot pigweed (Amaranthus retroflexus, AMARE), velvetleaf (Abutilon theophrasti, ABUTH), sicklepod (Cassia obtusifolia, CASOB), ivyleaf morningglory (Ipomoea hederacea, IPOHE), lambsquarters (Chenopodium album, CHEAL), common ragweed (Ambrosia artemisiifolia L., AMBEL), and cocklebur (Xanthium strumarium, XANST) were used as test species. Four grass weed species including green foxtail (Setaria viridis, SETVI), barnyardgrass (Echinochloa crus-galli, ECHCG), johnsongrass (Sorghum halepense, SORHA), and large crabgrass (Digitaria sanguinalis, DIGSA) were also used. In addition, three crop species, field corn (Zea mays L., var. Dekalb 535, CORN), soybean (Glycine max L., var. Pella 86, SOY), and upland rice (Oryza sp., var.Tebonnet, RICE) were included.
(§2) All plants were grown in 10 cm square plastic pots which were filled with a sandy loam soil mix. For pre-emerge tests, seeds were planted one day prior to application of the test compounds. For post-emerge tests, seeds were planted 8-21 days prior to the test to allow emergence and good foliage development prior to application of the test substances. At the time of the post-emerge application, plants of all species were usually at the 2-3 leaf stage of development.
(§3) All test compounds were dissolved in acetone and applied to the test units in a volume of 187 1/ha. Test materials were applied at rates ranging from 15 g ai/ha to 1000 g ai/ha using a track sprayer equipped with a TJ8001E even flow flat fan spray nozzle. Plants were arranged on a shelf so that the top of the canopy (post-emerge) or top of the soil surface (pre-emerge) was 40-45 cm below the nozzle. Pressurized air was used to force the test solution through the nozzle as it was mechanically advanced (via electrically driven chain drive) over the top of all test plants/pots. This application simulates a typical commercial field herbicide application.
(§4) In the post-emerge test, a commercial non-ionic surfactant was also included (0.25% v/v) to enhance wetting of the leaf surfaces of target plants. Immediately after application, test units of the pre-emerge applications were watered at the soil surface to incorporate the test materials. Subsequently, these test units were bottom-watered. Post-emerge test units were always bottom-watered.
(§5) At 14 days after application of the test materials, phytotoxicity ratings were recorded. A rating scale of 0-100 was used as previously described in Research Methods in Weed Science, 2nd edition, B. Truelove, Ed., Southern Weed Science Society, Auburn University, Auburn, Ala., 1977. Briefly, “0” corresponds to no damage and “100” corresponds to complete death of all plants in the test unit. This scale was used both to determine efficacy against weed species and damage to crop species. Herbicide activity data for various compounds of this invention, which are shown by compound No. in Tables I-VI, are shown in Tables VIII-IX.

[2] = system: ivyleaf morningglory (Ipomoea hederacea, IPOHE); test: as above
From the text: as §1, §2, §3, §4, §5

[3] = system: large crabgrass (Digitaria sanguinalis, DIGSA); test: as above
From the text: as §1, §2, §3, §4, §5

[4] = system: johnsongrass (Sorghum halepense, SORHA); test: as above
From the text: as §1, §2, §3, §4, §5

[5] = system: sicklepod (Cassia obtusifolia, CASOB); test: as above
From the text: as §1, §2, §3, §4, §5

[6] = system: common ragweed (Ambrosia artemisiifolia L., AMBEL); test: as above
From the text: as §1, §2, §3, §4, §5

[7] = system: velvetleaf (Abutilon theophrasti, ABUTH); test: as above
From the text: as §1, §2, §3, §4, §5

[8] = system: lambsquarters (Chenopodium album, CHEAL); test: as above
From the text: as §1, §2, §3, §4, §5

[9] = system: redroot pigweed (Amaranthus retroflexus, AMARE); test: as above
From the text: as §1, §2, §3, §4, §5

[10] = system: barnyardgrass (Echinochloa crus-galli, ECHCG); test: as above
From the text: as §1, §2, §3, §4, §5

[11] = system: field corn (Zea mays L., var. Dekalb 535, CORN); test: Post-emerge greenhouse screening, crop safety / corn selectivity (phytotoxicity rating)
From the text: as §1, §2, §3, §4, §5

[12] = system: soybean (Glycine max L., var. Pella 86, SOY); test: Post-emerge greenhouse screening, crop safety (phytotoxicity rating)
From the text: as §1, §2, §3, §4, §5

[13] = system: upland rice (Oryza sp., var.Tebonnet, RICE); test: as above
From the text: as §1, §2, §3, §4, §5

[14] = system: green foxtail (Setaria viridis, SETVI); test: Post-emerge greenhouse herbicide activity screening, phytotoxicity rating
From the text: as §1, §2, §3, §4, §5

[15] = system: ivyleaf morningglory (Ipomoea hederacea, IPOHE); test: as above
From the text: as §1, §2, §3, §4, §5

[16] = system: large crabgrass (Digitaria sanguinalis, DIGSA); test: as above
From the text: as §1, §2, §3, §4, §5

[17] = system: johnsongrass (Sorghum halepense, SORHA); test: as above
From the text: as §1, §2, §3, §4, §5

[18] = system: sicklepod (Cassia obtusifolia, CASOB); test: as above
From the text: as §1, §2, §3, §4, §5

[19] = system: common ragweed (Ambrosia artemisiifolia L., AMBEL); test: as above
From the text: as §1, §2, §3, §4, §5

[20] = system: velvetleaf (Abutilon theophrasti, ABUTH); test: as above
From the text: as §1, §2, §3, §4, §5

[21] = system: lambsquarters (Chenopodium album, CHEAL); test: as above
From the text: as §1, §2, §3, §4, §5

[22] = system: redroot pigweed (Amaranthus retroflexus, AMARE); test: as above
From the text: as §1, §2, §3, §4, §5

[23] = system: barnyardgrass (Echinochloa crus-galli, ECHCG); test: as above
From the text: as §1, §2, §3, §4, §5

[24] = system: soybean (Glycine max L., var. Pella 86, SOY); test: Pre-emerge greenhouse screening, crop safety (phytotoxicity rating)
From the text: as §1, §2, §3, §4, §5

[25] = system: field corn (Zea mays L., var. Dekalb 535, CORN); test: as above
From the text: as §1, §2, §3, §4, §5

[26] = system: upland rice (Oryza sp., var.Tebonnet, RICE); test: as above
From the text: as §1, §2, §3, §4, §5

## O=[N+]([O-])c1ccccc1Oc1cc(-c2nn3c(c2Cl)CCCC3)c(F)cc1Cl [Compound 6-19]
[1]
  SETVI phytotoxicity rating (0-100 scale): 95
[2]
  IPOHE phytotoxicity rating (0-100 scale): 0
[3]
  DIGSA phytotoxicity rating (0-100 scale): 90
[4]
  SORHA phytotoxicity rating (0-100 scale): 65
[5]
  CASOB phytotoxicity rating (0-100 scale): 75
[6]
  AMBEL phytotoxicity rating (0-100 scale): 50
[7]
  ABUTH phytotoxicity rating (0-100 scale): 65
[8]
  CHEAL phytotoxicity rating (0-100 scale): 100
[9]
  AMARE phytotoxicity rating (0-100 scale): 100
[10]
  ECHCG phytotoxicity rating (0-100 scale): 50
[11]
  CORN crop damage, phytotoxicity rating (0-100 scale): 3
[12]
  SOY crop damage, phytotoxicity rating (0-100 scale): 40
[13]
  RICE crop damage, phytotoxicity rating (0-100 scale): 35
[14]
  SETVI phytotoxicity rating (0-100 scale): 65
[15]
  IPOHE phytotoxicity rating (0-100 scale): 100
[16]
  DIGSA phytotoxicity rating (0-100 scale): 50
[17]
  SORHA phytotoxicity rating (0-100 scale): 50
[18]
  CASOB phytotoxicity rating (0-100 scale): 75
[19]
  AMBEL phytotoxicity rating (0-100 scale): 50
[20]
  ABUTH phytotoxicity rating (0-100 scale): 100
[21]
  CHEAL phytotoxicity rating (0-100 scale): 98
[22]
  AMARE phytotoxicity rating (0-100 scale): 100
[23]
  ECHCG phytotoxicity rating (0-100 scale): 60
[24]
  SOY crop damage, phytotoxicity rating (0-100 scale): 50
[25]
  CORN crop damage, phytotoxicity rating (0-100 scale): 0
[26]
  RICE crop damage, phytotoxicity rating (0-100 scale): 0
